From patent publication US20220062262A1, “GSNO REDUCTASE INHIBITOR AS AN ADJUNCT THERAPY WITH REMOTE ISCHEMIC CONDITIONING AND THROMBOLYTIC REPERFUSION THERAPIES IN STROKE” (KING ABDULAZIZ UNIVERSITY, priority 2020, published 2022)

How the values were obtained:
[1] = tested on: PT-stroke (thrombotic occlusion of distal MCA trunk); test: Photothrombotic (PT) model of stroke in aged mice, infarct volume by TTC staining; format: in vivo
Protocol: Aged mice (16 ±1-mo) were subjected to PT-stroke via a novel lateral side surgical approach without craniotomy resulting in the thrombotic occlusion of distal main trunk of MCA. For the purpose, mice were anesthetized with isofluorane, prepared for surgery, and rose Bengal dye (50 mg/kgbwt in 200 uL of 1× sterile PBS) was intravenously (IV) infused. Mice were immediately put on a robotic stereotaxic frame, the head was rotated to face right side up, and the skull was exposed. The distal trunk of MCA was visualized underneath the skull bone (without craniotomy) using a 532 nm laser source (8-mm beam diameter; 4.5 mW) integrated to an ID8-iris (ThorLabs, NJ, USA). The MCA region above the zygomatic arc was exposed with the laser for 20-min from a distance of ˜2-3-mm. Following 20-min laser exposure, thrombotic occlusion of the distal trunk of MCA was confirmed using laser doppler flowmeter showing >60% drop in CBF and finally the lateral side skin wound was closed. All mice under C57/B6 background were bred, housed, used and related experimental procedures were performed in accordance with the approved protocol of Institutional Animal Care and Use Committees (IACUCs) of St. Joseph's Hospital and Medical Center (SJHMC), and Augusta University, Augusta, Ga. Effect of stroke on GSNOR expression/activity was first determined in a clinically relevant partially-humanized TE-stroke, embolic middle cerebral artery occlusion (eMCAo) model in aged (16±1-mo-old) male mice. Next, an effective dose-finding study of GRI therapy (stroke injury size) was performed in aged (16±1-mo-old) male mice in a photothrombotic (PT) model of stroke with the reduction in infarct volume as the primary outcome. The safety and benefits of the best dose of GRI therapy in reducing infarct volume as the primary outcome was also confirmed in reproductively senescent aged (16±1-mo-old) female mice subjected to PT-stroke. To test the benefits of GRI therapy during permanent ischemia, GRI was also tested in adult (14±1-weeks) mice of both sexes subjected to permanent model of middle cerebral artery ligation (pMCAL). All females were ovariectomized at the age of 12-weeks, i.e., 2-weeks prior to stroke surgery. A 2×2 factorial design was adopted [2 Sexes (MALE vs. FEMALE)×2 GRI (NO vs. YES)] such that all 4 groups of both sexes were subjected to pMCAL followed by randomization into two different treatment cohorts: GRI therapy or equal volume of Vehicle treatment. All mice were tested for behavioral outcome on a narrow beam test, relative CBF measurement using laser speckle contrast imaging (LSCI) and infarct volume size. […] Outcome measures such as brain tissue oxygenation (PbtO2), acute inflammatory genes response, neurological deficit, edema as percent (%) swelling and infarct volumes were assessed. […]

[2] = tested on: iNOS, iCAM-1, IL-1β, IL-6 expression; test: Brain inflammatory gene expression (RT-PCR) after tMCAo in STZ-induced diabetic mice; format: in vivo
Protocol: Mice were immediately sacrificed after PbtO2 measurement and brain tissue samples were analyzed for inflammatory gene expression (N=6/gp). RT-PCR primers shown in Table 1 were used to measure changes in expression of iNOS (FIG. 11A), iCAM-1 (FIG. 11B), IL-1(3 (FIG. 11C) and IL-6 (FIG. 11D). The result for each inflammatory gene was normalized to expression of β-actin and expressed as a fold change.

Cc1cc(C(N)=O)ccc1-n1c(CCC(=O)O)ccc1-c1ccc(-n2ccnc2)cc1 [GRI therapy, N6022]
stroke injury (infarct volume) vs vehicle ([1]; aged female mice, 2.5 mg/kg, P<0.05, N=10/gp): effective in reducing the stroke injury significantly | neuroprotective effect (absolute infarct volume) across doses ([1]; aged male mice, 1, 2.5, 5.0 and 10 mg/kg IV 1 h after PT-stroke, N=8/gp): dose-dependent neuroprotective effect | GRI dose from which the neuroprotective effect plateaus ([1]; aged male mice, IV 1 h after PT-stroke): > 2.5 mg/kg | infarct/injury progression vs vehicle (TTC) ([1]; aged male mice, IV 1 h after PT-stroke, P<0.0001): significantly protected against the stroke and prevented the infarct/injury progression | inflammatory gene expression in brain (fold change, normalized to β-actin) ([2]; GRI alone vs vehicle-treated stroke group, after PbtO2 measurement at 6 h post-reperfusion): showed a trend only to downregulate most inflammatory genes and were not significantly different from the vehicle-treated stroke group | inflammatory gene expression in brain (fold change, normalized to β-actin) ([2]; GRI prior to RIC therapy vs RIC therapy alone): significantly downregulated and prevented RIC-induced inflammatory responses
